Measurements published in PubChem BioAssay AID1996.
Values after ≈ are worked out from the molar mass of the structure shown.

Conditions: buffer; pH 7.4; 200.0 µM

| SMILES | solubility kinetic [µg/mL] |
| --- | --- |
| CCN(C(=O)C1=COCCO1)c1nc2c(C)cccc2s1 | 7.5 (≈ 24.6 µM) |
| CCCCC(=O)NC(c1ccccc1)c1ccc2cccnc2c1O (stereo unspecified) | < 0.4 |
| Nc1nc(NCc2ccc(Cl)cc2)nc(NCCO)c1[N+](=O)[O-] | 45.9 (≈ 135 µM) |
| CCOC(=O)N1CCN(C(=O)C(C)NC(=O)c2ccco2)CC1 (stereo unspecified) | 44.3 (≈ 137 µM) |
| O=C(Nc1ccc2ccccc2c1)C(=O)C1C(=O)Nc2ccccc21 (stereo unspecified) | 3.7 (≈ 11.2 µM) |
| CC1(C)CC(NC(=O)c2ccc(Br)o2)CC(C)(C)N1 | > 49.4 |
| COc1ccc(NC(=O)CCCc2ccccc2)cc1OC | 29.2 (≈ 97.5 µM) |
| Cc1ccc(C)c(N2CCN(C(=O)C3CCC3)CC2)c1 | > 40.9 |
| CSc1ccccc1NC(=O)CN1CCCCC1 | 35.8 (≈ 135 µM) |
| CC(C)CNC(=O)CC1Nc2ccccc2NC1=O (stereo unspecified) | 38.8 (≈ 148 µM) |
| Cc1cccc(C(=O)O)c1NC(=O)Cc1cccc2ccccc12 | > 47.9 |
| O=C(COC(=O)C1=COCCO1)Nc1cc(Cl)c(Cl)cc1Cl | 5.3 (≈ 14.5 µM) |
| Cc1nn(C)c(Cl)c1CN1CCN(CCC(C)C)C(CCO)C1 (stereo unspecified) | > 51.4 |
| O=C(CN1CCCCCC1)Nc1ccccc1OC(F)F | 44.5 (≈ 149 µM) |
| Cc1ccc(COc2ccc(C)nc2[N+](=O)[O-])cc1 | 1.2 (≈ 4.65 µM) |
| O=C1NC(=S)N(c2ccccc2)C(=O)/C1=C/c1ccco1 | 43 (≈ 144 µM) |
| Cc1ccc(C)c(NC(=S)N(C)C)c1 | > 31.2 |
| CCN1C(=O)C(C(=O)c2ccccc2)SC1=S (stereo unspecified) | 38.4 (≈ 145 µM) |
| O=C1CN(C(=O)NCC(=O)N2CCCC2)c2ccccc2N1 | > 45.3 |
| CC(C)(C)c1ccc(NC(=O)COC(=O)C2CCCC2)cc1 | 13.5 (≈ 44.5 µM) |
| NC(=O)c1cn(C2CCCCC2)c2ccccc2c1=O | > 40.5 |
| COc1ccc(CCN2C(=O)CSC2c2ccc(F)cc2)cc1 (stereo unspecified) | 34.4 (≈ 104 µM) |
| COc1ccc(Cl)cc1C(=O)O/N=C(\N)c1ccccn1 | > 45.9 |
| O=C1CN(C(=S)NC(=O)c2ccccc2[N+](=O)[O-])CCN1 | > 46.2 |

| SMILES | solubility kinetic [µg/mL] |
| --- | --- |
| CCc1cc(=O)oc2cc(OCC(=O)N3CCC[C@H]3C(=O)O)ccc12 | > 51.8 |
| N#C/C(=C\N1CCCCC1)S(=O)(=O)c1ccc(Cl)cc1 | 8.2 (≈ 26.4 µM) |
| CC(C)=CCN1CCN(Cc2ccc(C)s2)CC1CCO (stereo unspecified) | 36.4 (≈ 118 µM) |
| Cc1ccccc1C(=O)N1CCC(C(=O)NC2CCCCCC2)CC1 | 48.6 (≈ 142 µM) |
| CN(Cc1ccccc1)C(=O)COC(=O)COc1ccc(C#N)cc1 | > 50.8 |
| Cc1cccc(/C(N)=N/OC(=O)c2ccncc2)c1 | 29.1 (≈ 114 µM) |
| Cc1ccc(NS(=O)(=O)c2ccc(C(=O)NCc3ccc(S(N)(=O)=O)cc3)cc2)cc1 | 51.7 (≈ 113 µM) |
| O=C(c1ccc(F)cc1Cl)N1CCC2(CC1)OCCO2 | > 45 |
| CCn1c(C(O)c2cc(OC)c(OC)c(OC)c2)nc2ccccc21 (stereo unspecified) | 47.7 (≈ 139 µM) |
| COC(=O)[C@H](C)NC(=O)NCc1ccc(S(N)(=O)=O)cc1 | > 47.3 |
| O=C1CCCN1CCCNc1ncnc2sccc12 | > 41.5 |
| OCCNc1nc(N2CCOCC2)nc(N2CCOCC2)n1 | 44.7 (≈ 144 µM) |
| Cc1cc(NC(=O)C(C)Oc2ccc(Cl)cc2Cl)no1 (stereo unspecified) | 9.1 (≈ 28.9 µM) |
| O=C(Cc1ccc(Br)cc1)Nc1ccc(Cl)cc1 | < 0.7 |
| COc1ccc(-c2ccc3c(N)c(C(=O)NC(C)C)sc3n2)cc1OC | 30.1 (≈ 81 µM) |
| Nc1ccccc1-n1cccc1 | 14.5 (≈ 91.7 µM) |
| O=Cc1c(Nc2cccc(C(F)(F)F)c2)nc2ccccn2c1=O | 1.7 (≈ 5.1 µM) |
| COc1ccc(Nc2ccncc2[N+](=O)[O-])cc1 | > 36.8 |
| O=C(COC(=O)c1cccc(O)c1)NC(=O)Cc1ccccc1 | > 47 |
| COc1ccccc1Cc1nc(-c2ccncc2)no1 | 33.4 (≈ 125 µM) |
| Cc1ccc(C(=O)NCCOc2ccc(Cl)cc2)cc1 | 3.4 (≈ 11.7 µM) |
| Cc1cc(Oc2ccc(Cl)cc2)nc(-c2ccccn2)n1 | 38.4 (≈ 129 µM) |
| CC(=O)Nc1ccc(S(=O)(=O)NCc2ccncc2)cc1 | > 45.8 |
| COc1ccc(CNC(=O)C2(CC(=O)NC(C)(C)C)CCCC2)cc1 | > 52 |

| SMILES | solubility kinetic [µg/mL] |
| --- | --- |
| O=C(NCCNC(=O)c1ccco1)c1ccco1 | 30.5 (≈ 123 µM) |
| Cc1ccc(CSc2[nH]c(=O)ncc2C)cc1 | 11 (≈ 44.7 µM) |
| CCN1CCCC1CNS(=O)(=O)c1ccc(F)c(Cl)c1 (stereo unspecified) | 44.2 (≈ 138 µM) |
| CCc1ccc(CN2C(=O)c3ccccc3C2C(=O)NC(C)CC)cc1 (stereo unspecified) | 5.3 (≈ 15.1 µM) |
| c1ccc2c(c1)CCc1ccccc1C2=C1CCNCC1 | 30.7 (≈ 111 µM) |
| COc1ccc(CCNC(=O)COC(=O)C2CC2C)cc1 (stereo unspecified) | > 43.7 |
| O=C(COc1ccc2ccc(=O)oc2c1)Nc1cccnc1 | 14.2 (≈ 47.9 µM) |
| CC(=O)N1C(C)(C)CC(=NOC(=O)c2ccc(C)cc2)CC1(C)C | > 49.6 |
| Cc1ccc2nc(-c3ccccn3)[nH]c2c1.Cl | > 36.9 |
| O=C(CNS(=O)(=O)Cc1ccccc1)NCc1ccccc1 | 12.9 (≈ 40.5 µM) |
| Nc1ccc(-c2ccc(N)c(C(=O)O)c2)cc1C(=O)O | > 40.8 |
| CCCCC(=O)Nc1ccccc1N1CCN(c2ccccc2)CC1 | 8.1 (≈ 24 µM) |
| CC(C)(C)c1ccc(N2C(=O)CSC2c2cccnc2)cc1 (stereo unspecified) | 43 (≈ 138 µM) |
| O=C(COC(=O)c1ccc[n+]([O-])c1)Nc1ccccc1OC(F)F | > 50.7 |
| Cc1onc(-c2ccccc2Cl)c1C(=O)N1CCCCC1 | > 45.7 |
| COc1ccc(OC)c(S(=O)(=O)NCCc2csc(-c3cccnc3)n2)c1 | 59 (≈ 145 µM) |
| CC(C)n1c(NCc2ccccc2O)nc2ccccc21 | 15.8 (≈ 56.2 µM) |
| CCOc1ccc(C(=O)Oc2ccc(NC(C)=O)cc2)cc1 | < 0.6 |
| Cc1nonc1NC(=O)CSc1nc2ccccc2o1 | 42.4 (≈ 146 µM) |
| C/C(=N\NC(=O)c1cc(C)nc2ccccc12)c1ccco1 | > 44 |
| COc1cccc(/C=C/c2nc(C#N)c(NCC(C)C)o2)c1 | 0.4 (≈ 1.35 µM) |
| COc1cccc(OC)c1C(=O)O/N=C(\N)c1ccncc1 | 42.2 (≈ 140 µM) |
| Cc1csc(NC(=O)CN2C(=O)COc3ccc(Cl)cc32)n1 | 2.1 (≈ 6.22 µM) |
